Consider ten molecules from PMC6010064, “Discovery of curcumin inspired sulfonamide derivatives as a new class of carbonic anhydrase isoforms I, II, IX, and XII inhibitors” (Journal of Enzyme Inhibition and Medicinal Chemistry, 2017).

T1 sequence (P00915 2-261): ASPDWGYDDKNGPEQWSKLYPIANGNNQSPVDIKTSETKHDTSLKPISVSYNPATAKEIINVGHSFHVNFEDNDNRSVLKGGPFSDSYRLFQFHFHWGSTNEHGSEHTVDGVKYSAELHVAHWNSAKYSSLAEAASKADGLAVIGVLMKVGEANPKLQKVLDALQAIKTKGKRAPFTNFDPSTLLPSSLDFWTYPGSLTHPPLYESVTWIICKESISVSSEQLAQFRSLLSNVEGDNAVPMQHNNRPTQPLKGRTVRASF

One assay addresses T1, hCA I (Homo sapiens, UniProt P00915).
T1 construct: gene CA1; recombinant, obtained in-house as reported earlier
The experiment in a line: stopped-flow CO2 hydrase assay. The assay is classed as biochemical.
Conditions: not given
An excerpt:
stopped-flow CO2 hydrase assay on hCA I
In turn, `COc1ccc(OC)c(/C=C/C(=O)/C=C/c2ccc(S(N)(=O)=O)cc2)c1` [5d, 4-((1E,4E)-5-(2,5-dimethoxyphenyl)-3-oxopenta-1,4-dien-1-yl)benzenesulfonamide] displayed a Ki of 704 nM.

As for `COc1ccc(/C=C/C(=O)/C=C/c2ccc(S(N)(=O)=O)cc2)cc1OC` [5e, 4-((1E,4E)-5-(3,4-dimethoxyphenyl)-3-oxopenta-1,4-dien-1-yl)benzenesulfonamide], the Ki came out at 295 nM.

With `COc1cc(/C=C/C(=O)/C=C/c2ccc(S(N)(=O)=O)cc2)cc(OC)c1OC` [5h, 4-((1E,4E)-3-oxo-5-(3,4,5-trimethoxyphenyl)penta-1,4-dien-1-yl)benzenesulfonamide], the Ki was 595 nM.

In the case of `COc1cc(OC)c(/C=C/C(=O)/C=C/c2ccc(S(N)(=O)=O)cc2)c(OC)c1` [5g, 4-((1E,4E)-3-oxo-5-(2,4,6-trimethoxyphenyl)penta-1,4-dien-1-yl)benzenesulfonamide], the Ki came to 904 nM.

As to `COc1ccc(/C=C/C(=O)/C=C/c2ccc(S(N)(=O)=O)cc2)cc1` [5b, 4-((1E,4E)-5-(4-methoxyphenyl)-3-oxopenta-1,4-dien-1-yl)benzenesulfonamide], the Ki amounted to 286 nM.

In turn, `CC(C)Oc1ccc(/C=C/C(=O)/C=C/c2ccc(S(N)(=O)=O)cc2)cc1` [5a, 4-((1E,4E)-5-(4-isopropoxyphenyl)-3-oxopenta-1,4-dien-1-yl)benzenesulfonamide] showed a Ki of 417 nM.

`NS(=O)(=O)c1ccc(/C=C/C(=O)/C=C/c2ccc(Cl)cc2)cc1` [5i, 4-((1E,4E)-5-(4-chlorophenyl)-3-oxopenta-1,4-dien-1-yl)benzenesulfonamide] showed a Ki of 373 nM.

In turn, `COc1ccc(/C=C/C(=O)/C=C/c2ccc(S(N)(=O)=O)cc2)c(OC)c1` [5c, 4-((1E,4E)-5-(2,4-dimethoxyphenyl)-3-oxopenta-1,4-dien-1-yl)benzenesulfonamide] had a Ki of 848 nM.

`COc1ccc(/C=C/C(=O)/C=C/c2ccc(S(N)(=O)=O)cc2)c(F)c1` [5j, 4-((1E,4E)-5-(2-fluoro-4-methoxyphenyl)-3-oxopenta-1,4-dien-1-yl)benzenesulfonamide]: the affinity, expressed as Ki, was 246 nM.

Staying with this assay, now noted: pH […] Hepes […], […] Na2SO4, CO2 substrate, […] min preincubation at room temperature.
`COc1ccc(/C=C/C(=O)/C=C/c2ccc(S(N)(=O)=O)cc2)c(OC)c1OC` [5f, 4-((1E,4E)-3-oxo-5-(2,3,4-trimethoxyphenyl)penta-1,4-dien-1-yl)benzenesulfonamide] displayed a Ki of 192 nM.

In another assay the target is T2, hCA XII (Homo sapiens, UniProt O43570).
T2 construct: gene CA12; recombinant, obtained in-house as reported earlier
T2 sequence (O43570 25-354): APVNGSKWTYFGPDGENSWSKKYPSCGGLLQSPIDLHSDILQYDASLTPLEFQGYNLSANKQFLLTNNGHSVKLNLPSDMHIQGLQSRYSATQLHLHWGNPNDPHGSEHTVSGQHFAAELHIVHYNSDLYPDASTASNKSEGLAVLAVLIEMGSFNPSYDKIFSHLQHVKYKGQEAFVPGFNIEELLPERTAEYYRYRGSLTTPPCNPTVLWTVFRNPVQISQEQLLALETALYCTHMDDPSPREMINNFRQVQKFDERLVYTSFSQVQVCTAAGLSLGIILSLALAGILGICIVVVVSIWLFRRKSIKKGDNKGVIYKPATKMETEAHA
The experiment in a line: stopped-flow CO2 hydrase assay.
Conditions: not given
The format is biochemical. The source says: stopped-flow CO2 hydrase assay on hCA XII
`COc1ccc(OC)c(/C=C/C(=O)/C=C/c2ccc(S(N)(=O)=O)cc2)c1` [5d, 4-((1E,4E)-5-(2,5-dimethoxyphenyl)-3-oxopenta-1,4-dien-1-yl)benzenesulfonamide] came in with a Ki of 8.1 nM.

`COc1ccc(/C=C/C(=O)/C=C/c2ccc(S(N)(=O)=O)cc2)cc1OC` [5e, 4-((1E,4E)-5-(3,4-dimethoxyphenyl)-3-oxopenta-1,4-dien-1-yl)benzenesulfonamide] displayed an inhibition constant Ki of 52.2 nM.

In turn, `COc1cc(/C=C/C(=O)/C=C/c2ccc(S(N)(=O)=O)cc2)cc(OC)c1OC` [5h, 4-((1E,4E)-3-oxo-5-(3,4,5-trimethoxyphenyl)penta-1,4-dien-1-yl)benzenesulfonamide] had a Ki of 25 nM.

Regarding `COc1cc(OC)c(/C=C/C(=O)/C=C/c2ccc(S(N)(=O)=O)cc2)c(OC)c1` [5g, 4-((1E,4E)-3-oxo-5-(2,4,6-trimethoxyphenyl)penta-1,4-dien-1-yl)benzenesulfonamide], the inhibitory constant (Ki) turned out to be 7.4 nM.

`COc1ccc(/C=C/C(=O)/C=C/c2ccc(S(N)(=O)=O)cc2)cc1` [5b, 4-((1E,4E)-5-(4-methoxyphenyl)-3-oxopenta-1,4-dien-1-yl)benzenesulfonamide] showed a Ki of 6.3 nM.

`CC(C)Oc1ccc(/C=C/C(=O)/C=C/c2ccc(S(N)(=O)=O)cc2)cc1` [5a, 4-((1E,4E)-5-(4-isopropoxyphenyl)-3-oxopenta-1,4-dien-1-yl)benzenesulfonamide] registered a Ki of 6.1 nM.

Turning to `NS(=O)(=O)c1ccc(/C=C/C(=O)/C=C/c2ccc(Cl)cc2)cc1` [5i, 4-((1E,4E)-5-(4-chlorophenyl)-3-oxopenta-1,4-dien-1-yl)benzenesulfonamide], the inhibition constant (Ki) was determined as 31.1 nM.

For the molecule `COc1ccc(/C=C/C(=O)/C=C/c2ccc(S(N)(=O)=O)cc2)c(OC)c1OC` [5f, 4-((1E,4E)-3-oxo-5-(2,3,4-trimethoxyphenyl)penta-1,4-dien-1-yl)benzenesulfonamide], the affinity, expressed as Ki, was 71.8 nM.

`COc1ccc(/C=C/C(=O)/C=C/c2ccc(S(N)(=O)=O)cc2)c(OC)c1` [5c, 4-((1E,4E)-5-(2,4-dimethoxyphenyl)-3-oxopenta-1,4-dien-1-yl)benzenesulfonamide]: the Ki turned out to be 7.4 nM.

`COc1ccc(/C=C/C(=O)/C=C/c2ccc(S(N)(=O)=O)cc2)c(F)c1` [5j, 4-((1E,4E)-5-(2-fluoro-4-methoxyphenyl)-3-oxopenta-1,4-dien-1-yl)benzenesulfonamide] showed an inhibitory constant (Ki) of 68 nM.

The target of another assay is T3, hCA IX (Homo sapiens, UniProt Q16790).
T3 construct: gene CA9; recombinant, obtained in-house as reported earlier
The experiment in a line: stopped-flow CO2 hydrase assay. The assay is classed as biochemical.
Conditions: not given
An excerpt:
stopped-flow CO2 hydrase assay on hCA IX
As for `COc1ccc(OC)c(/C=C/C(=O)/C=C/c2ccc(S(N)(=O)=O)cc2)c1` [5d, 4-((1E,4E)-5-(2,5-dimethoxyphenyl)-3-oxopenta-1,4-dien-1-yl)benzenesulfonamide], affinity was put at a Ki of 8.4 nM.

Molecule `COc1ccc(/C=C/C(=O)/C=C/c2ccc(S(N)(=O)=O)cc2)cc1OC` [5e, 4-((1E,4E)-5-(3,4-dimethoxyphenyl)-3-oxopenta-1,4-dien-1-yl)benzenesulfonamide] gave a Ki of 2.3 nM.

As to `COc1cc(/C=C/C(=O)/C=C/c2ccc(S(N)(=O)=O)cc2)cc(OC)c1OC` [5h, 4-((1E,4E)-3-oxo-5-(3,4,5-trimethoxyphenyl)penta-1,4-dien-1-yl)benzenesulfonamide], the inhibitory constant (Ki) was determined as 7.8 nM.

With `COc1cc(OC)c(/C=C/C(=O)/C=C/c2ccc(S(N)(=O)=O)cc2)c(OC)c1` [5g, 4-((1E,4E)-3-oxo-5-(2,4,6-trimethoxyphenyl)penta-1,4-dien-1-yl)benzenesulfonamide], the Ki was 2.4 nM.

`COc1ccc(/C=C/C(=O)/C=C/c2ccc(S(N)(=O)=O)cc2)cc1` [5b, 4-((1E,4E)-5-(4-methoxyphenyl)-3-oxopenta-1,4-dien-1-yl)benzenesulfonamide] returned an inhibitory constant (Ki) of 8.6 nM.

Take `CC(C)Oc1ccc(/C=C/C(=O)/C=C/c2ccc(S(N)(=O)=O)cc2)cc1` [5a, 4-((1E,4E)-5-(4-isopropoxyphenyl)-3-oxopenta-1,4-dien-1-yl)benzenesulfonamide]: the Ki worked out at 2.3 nM.

As for `NS(=O)(=O)c1ccc(/C=C/C(=O)/C=C/c2ccc(Cl)cc2)cc1` [5i, 4-((1E,4E)-5-(4-chlorophenyl)-3-oxopenta-1,4-dien-1-yl)benzenesulfonamide], affinity was put at a Ki of 87.3 nM.

Turning to `COc1ccc(/C=C/C(=O)/C=C/c2ccc(S(N)(=O)=O)cc2)c(OC)c1OC` [5f, 4-((1E,4E)-3-oxo-5-(2,3,4-trimethoxyphenyl)penta-1,4-dien-1-yl)benzenesulfonamide], the inhibition constant (Ki) amounted to 2.4 nM.

The molecule `COc1ccc(/C=C/C(=O)/C=C/c2ccc(S(N)(=O)=O)cc2)c(OC)c1` [5c, 4-((1E,4E)-5-(2,4-dimethoxyphenyl)-3-oxopenta-1,4-dien-1-yl)benzenesulfonamide] gave a Ki of 7.5 nM.

Turning to `COc1ccc(/C=C/C(=O)/C=C/c2ccc(S(N)(=O)=O)cc2)c(F)c1` [5j, 4-((1E,4E)-5-(2-fluoro-4-methoxyphenyl)-3-oxopenta-1,4-dien-1-yl)benzenesulfonamide], the Ki was found to be 61 nM.

The target of a further assay is T4, hCA II (Homo sapiens, UniProt P00918).
T4 construct: gene CA2; recombinant, obtained in-house as reported earlier
Briefly: stopped-flow CO2 hydrase assay.
Conditions: not given
The assay is classed as biochemical. An excerpt:
stopped-flow CO2 hydrase assay on hCA II
The molecule `COc1cc(/C=C/C(=O)/C=C/c2ccc(S(N)(=O)=O)cc2)cc(OC)c1OC` [5h, 4-((1E,4E)-3-oxo-5-(3,4,5-trimethoxyphenyl)penta-1,4-dien-1-yl)benzenesulfonamide] showed an inhibitory constant (Ki) of 8.8 nM.

Regarding `COc1cc(OC)c(/C=C/C(=O)/C=C/c2ccc(S(N)(=O)=O)cc2)c(OC)c1` [5g, 4-((1E,4E)-3-oxo-5-(2,4,6-trimethoxyphenyl)penta-1,4-dien-1-yl)benzenesulfonamide], the affinity corresponds to a Ki of 0.87 nM.

Turning to `COc1ccc(/C=C/C(=O)/C=C/c2ccc(S(N)(=O)=O)cc2)cc1` [5b, 4-((1E,4E)-5-(4-methoxyphenyl)-3-oxopenta-1,4-dien-1-yl)benzenesulfonamide], affinity was put at a Ki of 2.1 nM.

`CC(C)Oc1ccc(/C=C/C(=O)/C=C/c2ccc(S(N)(=O)=O)cc2)cc1` [5a, 4-((1E,4E)-5-(4-isopropoxyphenyl)-3-oxopenta-1,4-dien-1-yl)benzenesulfonamide] registered a Ki of 7.9 nM.

For the molecule `NS(=O)(=O)c1ccc(/C=C/C(=O)/C=C/c2ccc(Cl)cc2)cc1` [5i, 4-((1E,4E)-5-(4-chlorophenyl)-3-oxopenta-1,4-dien-1-yl)benzenesulfonamide], the affinity corresponds to a Ki of 8.1 nM.

In turn, `COc1ccc(/C=C/C(=O)/C=C/c2ccc(S(N)(=O)=O)cc2)c(OC)c1OC` [5f, 4-((1E,4E)-3-oxo-5-(2,3,4-trimethoxyphenyl)penta-1,4-dien-1-yl)benzenesulfonamide] came in with an inhibitory constant (Ki) of 3 nM.

`COc1ccc(/C=C/C(=O)/C=C/c2ccc(S(N)(=O)=O)cc2)c(OC)c1` [5c, 4-((1E,4E)-5-(2,4-dimethoxyphenyl)-3-oxopenta-1,4-dien-1-yl)benzenesulfonamide] displayed a Ki of 4.7 nM.

`COc1ccc(/C=C/C(=O)/C=C/c2ccc(S(N)(=O)=O)cc2)c(F)c1` [5j, 4-((1E,4E)-5-(2-fluoro-4-methoxyphenyl)-3-oxopenta-1,4-dien-1-yl)benzenesulfonamide]: the affinity corresponds to a Ki of 8.2 nM.

Staying with this assay, now noted: pH […] Hepes […], […] Na2SO4, CO2 substrate, […] min preincubation at room temperature.
`COc1ccc(OC)c(/C=C/C(=O)/C=C/c2ccc(S(N)(=O)=O)cc2)c1` [5d, 4-((1E,4E)-5-(2,5-dimethoxyphenyl)-3-oxopenta-1,4-dien-1-yl)benzenesulfonamide] gave a Ki of 0.89 nM.

The molecule `COc1ccc(/C=C/C(=O)/C=C/c2ccc(S(N)(=O)=O)cc2)cc1OC` [5e, 4-((1E,4E)-5-(3,4-dimethoxyphenyl)-3-oxopenta-1,4-dien-1-yl)benzenesulfonamide] came in with a Ki of 0.75 nM.

By Ki is commonly meant the dissociation constant of the complex between target and ligand, obtained from inhibition or displacement. High values mean lower affinity, low ones higher affinity.
